{"source": "patent US20150005347A1", "about": "“NITROGEN-CONTAINING HETEROCYCLIC DERIVATIVE HAVING 2-IMINO GROUP AND PEST CONTROL AGENT INCLUDING THE SAME” (MEIJI SEIKA PHARMA CO., LTD., priority 2012, published 2015)", "assay_type_in_all_cases": "in vivo", "key": {"[1]": {"test_system": "Sogatella furcifera exhibiting drug resistance to fipronil", "assay": "Soil irrigation test, Sogatella furcifera exhibiting drug resistance to fipronil", "settings": "drug resistant populations", "method": "Test Example 19 Pest Control Test of Sogatella furcifera\n(§1) A rice seedling in pot culture was subjected to soil irrigation treatment with a drug solution of the compound of the present invention at a predetermined concentration, which had been prepared so as to be a 10% acetone water. […] Thereafter, the larvae were left to stand in a thermostatic chamber (16 hours of light period-8 hours of dark period) at 25° C. […] The test was performed in duplicate.\n(§2) Mortality of larvae(%)={number of dead larvae/(number of survived larvae+number of dead larvae)}×100\n(§3) In addition, for the origin of test pests, bugs collected within the city of Odawara in 2010 as the drug resistant Sogatella furcifera, and bugs collected within the city of Chigasaki in 1970 and then successively reared indoors for a long time as the susceptible populations of Sogatella furcifera were used."}, "[2]": {"test_system": "susceptible populations of Sogatella furcifera", "assay": "Soil irrigation test, susceptible populations of Sogatella furcifera", "method": "as §1, §2\nFurther, for comparison, the test against a populations of Sogatella furcifera which is highly susceptible to fipronil was performed by the same method as described above, and the results thereof are shown in Table 44.\nas §3"}, "[3]": {"test_system": "Laodelphax striatella exhibiting drug resistance to fipronil", "assay": "Soil irrigation test, Laodelphax striatella exhibiting drug resistance to fipronil", "settings": "drug resistant populations", "method": "Test Example 20 Pest Control Test of Laodelphax striatella\nas §1, §2\n(§4) In addition, for the origin of test pests, bugs collected within the Kumamoto prefecture in 2006 as the drug resistant Laodelphax striatella, and bugs successively reared indoors for a long time as the susceptible populations of Laodelphax striatella were used."}, "[4]": {"test_system": "susceptible populations of Laodelphax striatella", "assay": "Soil irrigation test, susceptible populations of Laodelphax striatella", "method": "as §1, §2\nFurther, for comparison, the test against a populations of Laodelphax striatella which is highly susceptible to fipronil was performed by the same method as described above, and the results thereof are shown in Table 45.\nas §4"}}, "data": [{"smiles": "N#Cc1nn(-c2c(Cl)cc(C(F)(F)F)cc2Cl)c(N)c1[S+]([O-])C(F)(F)F", "note": "(stereo not drawn) [Fipronil]", "values": [{"measurement": "Insecticidal effects against Sogatella furcifera (mortality of larvae %), Drug resistant populations six days after the treatment", "setting": "[1]; Rate 0.01 mg/pot", "result": 40, "unit": "%"}, {"measurement": "Insecticidal effects against Sogatella furcifera (mortality of larvae %), Drug resistant populations six days after the treatment", "setting": "[1]; Rate 0.05 mg/pot", "result": 90, "unit": "%"}, {"measurement": "Insecticidal effects against Sogatella furcifera (mortality of larvae %), Susceptible populations six days after the treatment", "setting": "[2]; Rate 0.005 mg/pot", "result": 100, "unit": "%"}, {"measurement": "Insecticidal effects against Sogatella furcifera (mortality of larvae %), Susceptible populations six days after the treatment", "setting": "[2]; Rate 0.01 mg/pot", "result": 100, "unit": "%"}, {"measurement": "Insecticidal effects against Sogatella furcifera (mortality of larvae %), Susceptible populations six days after the treatment", "setting": "[2]; Rate 0.01 mg/pot as printed in the last line (below 0.005)", "result": 78, "unit": "%"}, {"measurement": "Insecticidal effects against Laodelphax striatella (mortality of larvae %), Drug resistant populations six days after the treatment", "setting": "[3]; Rate 0.02 mg/pot", "result": 76, "unit": "%"}, {"measurement": "Insecticidal effects against Laodelphax striatella (mortality of larvae %), Drug resistant populations six days after the treatment", "setting": "[3]; Rate 0.05 mg/pot", "result": 90, "unit": "%"}, {"measurement": "Insecticidal effects against Laodelphax striatella (mortality of larvae %), Susceptible populations six days after the treatment", "setting": "[4]; Rate 0.005 mg/pot", "result": 89, "unit": "%"}, {"measurement": "Insecticidal effects against Laodelphax striatella (mortality of larvae %), Susceptible populations six days after the treatment", "setting": "[4]; Rate 0.01 mg/pot", "result": 100, "unit": "%"}]}]}
